Read-outs that look alike come from different tables or passages of the source.
Tests used:
[1] = Dilution of compounds into water (observed solubility)
Excerpt: The monomer, dimer and trimer of compound 48/80 were received as synthesised from Macba Numbere at UCL.

[2] = tested on: PKB Ser473 phosphorylation; experiment: PKB Ser473 activation synergy experiments (Western blot, NIH3T3 cells primed with NCS); format: cell-based; conditions: for phosphorylation of PKB (Western blot 1, FIG. 1): NIH3T3 cells, 1% NCS 20 minutes then compound 15 minutes
Excerpt: PKB is a protein downsteam effector of PI3K, and becomes phosphorylated on (residues required for its activity) in response to the activation of PI3K. Natal Calf Serum (NCS) is a stimulator of PI3K and thus subsequently results in PKB activation. Therefore the positive control used in experiments is 10% serum and a negative control used is provided with no serum at all.
Compound 48/80 is the condensation product of N-methyl-p-methoxyphenethylamine and formaldehyde and is a mixture of cationic amphiphiles of varying degrees of polymerisation.
In a typical method, NIH3T3 cells were grown in media (GibcoBRL) containing 10% NCS to near confluency in six well plates. The cells were starved using 0.5% serum for 2-3 days. The media was then removed and replaced with serum free media for 15 minutes. Subsequently, 1% NCS was added to reaction wells, and 0%, 1% and 10% NCS to control wells. After 20 minutes incubation, then compound was added, and the wells incubated for a further 15 minutes. Media was removed and sample buffer was added and the cells lysed, boiled, centrifuged.
Samples were subjected to gel electrophoresis by 10% SDS-PAGE and then Western blotted on to PVDF membrane (Biorad) according to standard protocols. Western blots were probed using primary antibodies against PKB purchased from New England Biolabs and secondary antibodies of goat anti-rabbit IgG coupled to horseradish peroxidase (Amersham). The membranes were then developed using a freshly prepared ECL solution according to standard protocols.

[3] = diluted into water initially, afterwards into DMSO

Row | Compound | solubility on dilution into water [1, 3] | solubility on dilution into water [1] | overall effect on PKB (conclusion from these studies) [2] | phosphorylation of PKB (Western blot 1, FIG. 1) ([2]; 3 μg/mL) | phosphorylation of PKB (Western blot 1, FIG. 1) ([2]; 6 μg/mL) | PKB Ser473 phosphorylation (Western blot 3) ([2]; 5 μg/mL experiment, controls contain DMSO at 2.5%)
1 | Benzeneethanamine-3,3′-methylenebis(4-methoxy-N-methyl) dihydrochloride [dimer] | solubility problems | – | – | – | – | –
2 | CNCCc1ccc(OC)c(Cc2cc(CCNC)cc(Cc3cc(CCNC)ccc3OC)c2OC)c1.Cl.Cl.Cl [trimer] | – | solubility problems | inhibiting species | just below that of 1% serum activation | almost completely inhibited | –
3 | CNCCc1ccc(OC)cc1 [monomer, N-methyl-p-methoxyphenethylamine] | solubility problems | – | activating species | – | – | slight activation above control levels

— patent US20080039527A1, “Calixarenes as Inhibitors of Protein Kinase B” (Imperial College Innovations Ltd., priority 2003, published 2008)
